According to article PMC5762315, “Inhibition of polo-like kinase 4 (PLK4): a new therapeutic option for rhabdoid tumors and pediatric medulloblastoma” (Oncotarget, 2017):
Values joined by “and” are separate entries in the source; they are usually repeats but may differ in a detail not shown here. Identical values can stand only once.

Columns and labels:
Assay in all cases: biochemical
Type in all cases: biochemical
various kinases [1] = biological target: various kinases (Homo sapiens, UniProt O76039); conditions: CDKL5
various kinases [2] = biological target: various kinases (Homo sapiens, UniProt P00519, F317I); conditions: ABL1 F317I
various kinases [3] = biological target: various kinases (Homo sapiens, UniProt P00533); conditions: EGFR (ErbB1)
various kinases [4] = biological target: various kinases (Homo sapiens, UniProt P00533, L858R/T790M); conditions: EGFR (ErbB1) T790M L858R
various kinases [5] = biological target: various kinases (Homo sapiens, UniProt P04626); conditions: ERBB2 (HER2)
various kinases [6] = biological target: various kinases (Homo sapiens, UniProt P05771); conditions: kinase PRKCB1 (PKC beta I); ZLYTE
various kinases [7] = biological target: various kinases (Homo sapiens, UniProt P07947); conditions: kinase YES1; ZLYTE
various kinases [8] = biological target: various kinases (Homo sapiens, UniProt P10721, V559D); conditions: KIT V559D
various kinases [9] = biological target: various kinases (Homo sapiens, UniProt P17948); conditions: FLT1 (VEGFR1)
various kinases [10] = biological target: various kinases (Homo sapiens, UniProt P35626); conditions: ADRBK2 (GRK3)
various kinases [11] = biological target: various kinases (Homo sapiens, UniProt P35916); conditions: FLT4 (VEGFR3)
various kinases [12] = biological target: various kinases (Homo sapiens, UniProt P36896); conditions: ACVR1B (ALK4)
various kinases [13] = biological target: various kinases (Homo sapiens, UniProt P42684); conditions: ABL2 (Arg)
various kinases [14] = biological target: various kinases (Homo sapiens, UniProt P43250); conditions: GRK6
various kinases [15] = biological target: various kinases (Homo sapiens, UniProt P45984); conditions: MAPK9 (JNK2)
various kinases [16] = biological target: various kinases (Homo sapiens, UniProt P49137); conditions: MAPKAPK2
various kinases [17] = biological target: various kinases (Homo sapiens, UniProt P68400); conditions: CSNK2A1 (CK2 alpha 1)
various kinases [18] = biological target: various kinases (Homo sapiens, UniProt P78368); conditions: CSNK1G2 (CK1 gamma 2)
various kinases [19] = biological target: T1, various kinases (Homo sapiens, UniProt Q05513); conditions: kinase PRKCZ (PKC zeta); ZLYTE
T1 sequence (Q05513 1-592): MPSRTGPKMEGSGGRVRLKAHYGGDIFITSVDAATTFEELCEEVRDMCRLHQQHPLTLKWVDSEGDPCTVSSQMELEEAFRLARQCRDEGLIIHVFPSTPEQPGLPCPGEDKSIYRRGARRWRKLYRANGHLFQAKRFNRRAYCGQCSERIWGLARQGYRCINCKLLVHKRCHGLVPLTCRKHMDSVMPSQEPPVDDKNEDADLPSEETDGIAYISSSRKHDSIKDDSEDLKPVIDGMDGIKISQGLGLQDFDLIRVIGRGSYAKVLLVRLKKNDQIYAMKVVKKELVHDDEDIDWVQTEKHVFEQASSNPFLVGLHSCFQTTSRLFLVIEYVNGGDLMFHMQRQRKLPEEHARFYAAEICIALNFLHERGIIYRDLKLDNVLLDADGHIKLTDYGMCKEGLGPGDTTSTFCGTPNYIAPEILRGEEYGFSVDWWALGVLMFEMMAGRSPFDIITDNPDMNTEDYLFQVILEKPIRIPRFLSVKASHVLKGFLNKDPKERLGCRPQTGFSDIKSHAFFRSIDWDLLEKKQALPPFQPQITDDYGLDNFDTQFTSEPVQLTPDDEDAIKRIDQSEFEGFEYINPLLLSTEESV

various kinases [20] = biological target: various kinases (Homo sapiens, UniProt Q13557); conditions: CAMK2D (CaMKII delta)
various kinases [21] = biological target: various kinases (Homo sapiens, UniProt Q15418); conditions: kinase RPS6KA1 (RSK1); ZLYTE
various kinases [22] = biological target: various kinases (Homo sapiens, UniProt Q16644); conditions: MAPKAPK3
various kinases [23] = biological target: various kinases (Homo sapiens, UniProt Q8N752); conditions: CSNK1A1L
various kinases [24] = biological target: T2, various kinases (Homo sapiens, UniProt Q9HBY8); conditions: kinase SGK2; ZLYTE
T2 sequence (Q9HBY8 1-367): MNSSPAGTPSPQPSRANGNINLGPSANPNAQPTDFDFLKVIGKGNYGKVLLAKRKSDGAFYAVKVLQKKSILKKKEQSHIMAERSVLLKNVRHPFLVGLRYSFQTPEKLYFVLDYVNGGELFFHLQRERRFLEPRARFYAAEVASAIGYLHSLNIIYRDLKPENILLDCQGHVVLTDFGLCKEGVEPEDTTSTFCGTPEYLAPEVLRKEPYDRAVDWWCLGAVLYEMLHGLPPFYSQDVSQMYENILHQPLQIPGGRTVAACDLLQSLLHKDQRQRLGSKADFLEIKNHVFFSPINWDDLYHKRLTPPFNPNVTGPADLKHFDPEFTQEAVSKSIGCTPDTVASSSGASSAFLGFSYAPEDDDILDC

various kinases [25] = biological target: various kinases (Homo sapiens, UniProt Q9HCP0); conditions: CSNK1G1 (CK1 gamma 1)
Throughout, for % Inhibition Average: test concentration or dose not given here.
Throughout, for % Inhibition Duplicate #1: test concentration or dose not given here.
Throughout, for % Inhibition Duplicate #2: test concentration or dose not given here.

Chain of various kinases (Homo sapiens, UniProt P05771) (P05771 whole entry): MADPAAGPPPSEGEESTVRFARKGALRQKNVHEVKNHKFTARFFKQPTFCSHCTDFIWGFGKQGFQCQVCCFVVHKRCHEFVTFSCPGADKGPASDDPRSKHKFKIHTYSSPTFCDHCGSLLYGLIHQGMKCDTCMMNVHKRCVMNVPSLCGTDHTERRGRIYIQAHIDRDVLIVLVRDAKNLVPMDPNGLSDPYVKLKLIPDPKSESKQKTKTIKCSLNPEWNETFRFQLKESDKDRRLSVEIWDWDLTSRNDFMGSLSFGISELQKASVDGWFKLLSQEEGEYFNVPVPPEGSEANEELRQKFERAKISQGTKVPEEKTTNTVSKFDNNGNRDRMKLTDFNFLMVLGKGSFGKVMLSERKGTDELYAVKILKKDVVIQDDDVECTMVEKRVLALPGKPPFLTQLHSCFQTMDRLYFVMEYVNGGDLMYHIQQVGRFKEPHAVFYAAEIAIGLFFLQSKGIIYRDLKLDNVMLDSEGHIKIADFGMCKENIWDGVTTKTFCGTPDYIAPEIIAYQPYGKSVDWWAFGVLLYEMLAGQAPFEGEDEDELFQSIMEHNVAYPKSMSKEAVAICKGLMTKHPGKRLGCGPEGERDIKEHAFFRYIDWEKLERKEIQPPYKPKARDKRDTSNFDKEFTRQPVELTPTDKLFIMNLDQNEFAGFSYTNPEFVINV
Chain of various kinases (Homo sapiens, UniProt Q15418) (Q15418 whole entry): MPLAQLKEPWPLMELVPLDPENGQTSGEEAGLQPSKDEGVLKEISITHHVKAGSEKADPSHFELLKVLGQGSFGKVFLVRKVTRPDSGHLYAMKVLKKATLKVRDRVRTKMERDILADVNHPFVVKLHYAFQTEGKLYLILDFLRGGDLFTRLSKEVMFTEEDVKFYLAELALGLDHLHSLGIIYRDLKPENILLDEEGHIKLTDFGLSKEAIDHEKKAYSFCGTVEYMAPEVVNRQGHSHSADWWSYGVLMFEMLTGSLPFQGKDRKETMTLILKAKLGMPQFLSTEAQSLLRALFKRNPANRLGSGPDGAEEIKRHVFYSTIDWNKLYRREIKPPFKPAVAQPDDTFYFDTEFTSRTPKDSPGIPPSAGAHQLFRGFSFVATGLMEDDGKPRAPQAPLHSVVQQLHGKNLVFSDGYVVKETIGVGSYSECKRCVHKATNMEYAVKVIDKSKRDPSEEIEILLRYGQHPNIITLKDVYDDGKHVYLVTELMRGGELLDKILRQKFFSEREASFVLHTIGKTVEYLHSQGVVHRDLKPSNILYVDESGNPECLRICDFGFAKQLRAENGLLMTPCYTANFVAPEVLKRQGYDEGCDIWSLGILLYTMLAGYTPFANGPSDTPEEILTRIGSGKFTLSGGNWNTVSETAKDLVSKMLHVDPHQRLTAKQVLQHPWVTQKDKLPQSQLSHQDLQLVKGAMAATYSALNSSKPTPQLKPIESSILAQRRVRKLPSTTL
Chain of various kinases (Homo sapiens, UniProt P07947) (P07947 whole entry): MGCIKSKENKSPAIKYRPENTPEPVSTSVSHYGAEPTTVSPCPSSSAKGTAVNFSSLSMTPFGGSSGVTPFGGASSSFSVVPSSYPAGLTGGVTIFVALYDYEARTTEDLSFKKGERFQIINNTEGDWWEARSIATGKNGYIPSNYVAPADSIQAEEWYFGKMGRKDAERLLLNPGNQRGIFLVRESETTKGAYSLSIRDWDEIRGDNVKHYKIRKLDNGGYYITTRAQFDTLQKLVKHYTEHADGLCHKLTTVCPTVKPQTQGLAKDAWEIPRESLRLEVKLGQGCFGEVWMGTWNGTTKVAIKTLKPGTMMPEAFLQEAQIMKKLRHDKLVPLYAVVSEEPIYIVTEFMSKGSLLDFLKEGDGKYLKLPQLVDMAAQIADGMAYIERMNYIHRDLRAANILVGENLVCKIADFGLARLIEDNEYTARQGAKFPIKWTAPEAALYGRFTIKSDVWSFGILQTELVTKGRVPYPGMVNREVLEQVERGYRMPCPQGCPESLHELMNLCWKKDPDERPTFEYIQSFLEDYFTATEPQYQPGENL
Chain of various kinases (Homo sapiens, UniProt P17948) (P17948 27-1338): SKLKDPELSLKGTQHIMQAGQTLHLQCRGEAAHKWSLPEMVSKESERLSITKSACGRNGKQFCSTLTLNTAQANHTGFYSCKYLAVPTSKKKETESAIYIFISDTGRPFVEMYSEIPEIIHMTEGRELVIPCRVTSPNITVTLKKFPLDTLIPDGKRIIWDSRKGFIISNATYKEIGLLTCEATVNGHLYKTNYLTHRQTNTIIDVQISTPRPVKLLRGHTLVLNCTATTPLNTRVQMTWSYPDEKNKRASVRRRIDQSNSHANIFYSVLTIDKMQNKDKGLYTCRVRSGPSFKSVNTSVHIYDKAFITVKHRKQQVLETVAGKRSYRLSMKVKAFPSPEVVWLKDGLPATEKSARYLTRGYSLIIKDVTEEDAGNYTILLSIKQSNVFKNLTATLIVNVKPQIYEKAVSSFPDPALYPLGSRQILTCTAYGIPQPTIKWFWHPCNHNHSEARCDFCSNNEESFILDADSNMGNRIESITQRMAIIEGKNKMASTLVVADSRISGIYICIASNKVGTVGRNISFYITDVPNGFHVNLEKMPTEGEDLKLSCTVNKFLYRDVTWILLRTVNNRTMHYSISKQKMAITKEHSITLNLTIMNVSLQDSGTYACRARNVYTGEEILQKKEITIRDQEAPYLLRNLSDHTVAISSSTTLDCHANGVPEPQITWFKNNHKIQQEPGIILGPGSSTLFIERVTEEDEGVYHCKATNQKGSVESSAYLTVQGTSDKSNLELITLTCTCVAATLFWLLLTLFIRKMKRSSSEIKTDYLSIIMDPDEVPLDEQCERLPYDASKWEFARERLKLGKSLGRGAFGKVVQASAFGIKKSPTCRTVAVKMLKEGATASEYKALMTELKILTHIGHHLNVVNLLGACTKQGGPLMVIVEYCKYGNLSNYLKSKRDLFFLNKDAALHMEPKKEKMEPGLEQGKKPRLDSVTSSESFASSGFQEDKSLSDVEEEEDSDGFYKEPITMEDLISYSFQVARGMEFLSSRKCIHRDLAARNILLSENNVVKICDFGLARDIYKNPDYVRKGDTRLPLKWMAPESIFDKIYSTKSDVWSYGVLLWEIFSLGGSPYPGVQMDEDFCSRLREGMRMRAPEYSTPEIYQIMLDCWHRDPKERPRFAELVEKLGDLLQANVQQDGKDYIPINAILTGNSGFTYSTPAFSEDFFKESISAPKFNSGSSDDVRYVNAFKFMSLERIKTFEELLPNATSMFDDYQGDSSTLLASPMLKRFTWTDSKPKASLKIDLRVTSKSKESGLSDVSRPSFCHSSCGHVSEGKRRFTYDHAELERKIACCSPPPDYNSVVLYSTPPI
Chain of various kinases (Homo sapiens, UniProt P35626) (P35626 whole entry): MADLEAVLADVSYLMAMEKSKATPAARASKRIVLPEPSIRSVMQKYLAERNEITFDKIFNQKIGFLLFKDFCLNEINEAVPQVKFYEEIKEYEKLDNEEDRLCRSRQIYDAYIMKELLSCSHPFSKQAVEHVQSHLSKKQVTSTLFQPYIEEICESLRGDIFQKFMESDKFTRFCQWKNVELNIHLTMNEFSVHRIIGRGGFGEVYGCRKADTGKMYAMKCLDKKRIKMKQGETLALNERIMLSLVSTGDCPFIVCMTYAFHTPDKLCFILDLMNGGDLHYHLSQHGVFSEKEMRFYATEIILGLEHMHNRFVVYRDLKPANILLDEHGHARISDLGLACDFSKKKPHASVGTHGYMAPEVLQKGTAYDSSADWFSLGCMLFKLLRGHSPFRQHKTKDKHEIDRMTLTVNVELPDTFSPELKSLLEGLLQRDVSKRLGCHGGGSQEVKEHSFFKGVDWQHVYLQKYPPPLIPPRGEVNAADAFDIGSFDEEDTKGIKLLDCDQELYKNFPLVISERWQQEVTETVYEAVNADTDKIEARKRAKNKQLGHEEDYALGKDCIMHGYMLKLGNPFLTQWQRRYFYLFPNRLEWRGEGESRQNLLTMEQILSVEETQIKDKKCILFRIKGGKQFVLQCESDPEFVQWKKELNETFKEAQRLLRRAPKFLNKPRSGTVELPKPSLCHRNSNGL
Chain of various kinases (Homo sapiens, UniProt P78368) (P78368 whole entry): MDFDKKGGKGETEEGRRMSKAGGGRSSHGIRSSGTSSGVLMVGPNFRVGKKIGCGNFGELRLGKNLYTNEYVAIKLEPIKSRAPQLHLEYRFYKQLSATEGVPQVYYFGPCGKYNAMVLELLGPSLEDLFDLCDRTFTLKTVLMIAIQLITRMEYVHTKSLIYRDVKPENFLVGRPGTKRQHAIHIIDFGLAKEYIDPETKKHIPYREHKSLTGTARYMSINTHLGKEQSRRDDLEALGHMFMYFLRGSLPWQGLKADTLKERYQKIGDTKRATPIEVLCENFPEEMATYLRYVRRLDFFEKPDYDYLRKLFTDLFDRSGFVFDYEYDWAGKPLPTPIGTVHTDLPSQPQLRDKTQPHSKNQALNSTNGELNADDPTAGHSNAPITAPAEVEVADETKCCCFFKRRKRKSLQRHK
Chain of various kinases (Homo sapiens, UniProt P68400) (P68400 whole entry): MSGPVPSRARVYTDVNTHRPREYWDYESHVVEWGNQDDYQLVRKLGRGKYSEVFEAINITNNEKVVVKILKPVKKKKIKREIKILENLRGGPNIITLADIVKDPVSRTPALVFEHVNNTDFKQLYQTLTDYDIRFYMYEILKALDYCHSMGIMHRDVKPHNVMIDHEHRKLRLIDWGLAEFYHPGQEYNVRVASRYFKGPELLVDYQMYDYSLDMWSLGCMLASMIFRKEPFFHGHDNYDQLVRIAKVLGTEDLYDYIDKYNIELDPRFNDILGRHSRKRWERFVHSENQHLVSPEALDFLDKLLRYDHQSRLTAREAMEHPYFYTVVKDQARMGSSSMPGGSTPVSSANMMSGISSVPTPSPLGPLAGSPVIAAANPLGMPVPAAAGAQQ

COc1ccc2c(c1)[C@]1(C[C@H]1c1ccc3c(/C=C/c4ccc(CN5C[C@@H](C)O[C@@H](C)C5)cc4)n[nH]c3c1)C(=O)N2 [CFI-400945]
% Inhibition (various kinases [1]): 5% | % Inhibition (various kinases [2]): 4% and 5% | % Inhibition (various kinases [3]): 1% and 7% | % Inhibition (various kinases [4]): 5% and 4% | % Inhibition (various kinases [5]): -2% and 1% | % Inhibition Average (various kinases [6]): 17% | % Inhibition Duplicate #1 (various kinases [6]): 18% | % Inhibition Duplicate #2 (various kinases [6]): 16% | % Inhibition Average (various kinases [7]): 17% | % Inhibition Duplicate #1 (various kinases [7]): 16% | % Inhibition Duplicate #2 (various kinases [7]): 18% | % Inhibition (various kinases [8]): 9% and 10% | % Inhibition (various kinases [9]): 0% and 1% | % Inhibition (various kinases [10]): 4% and 7% | % Inhibition (various kinases [11]): 6% and 8% | % Inhibition (various kinases [12]): -1% and -8% | % Inhibition (various kinases [13]): 58% and 63% | % Inhibition (various kinases [14]): 5% | % Inhibition (various kinases [15]): 9% and -1% | % Inhibition (various kinases [16]): 15% and 12% | % Inhibition (various kinases [17]): 9% and 4% | % Inhibition (various kinases [18]): 1% and 3% | % Inhibition Average (various kinases [19]): -11% | % Inhibition Duplicate #1 (various kinases [19]): -22% | % Inhibition Duplicate #2 (various kinases [19]): 0% | % Inhibition (various kinases [20]): 28% and 37% | % Inhibition Average (various kinases [21]): 7% | % Inhibition Duplicate #1 (various kinases [21]): 7% | % Inhibition Duplicate #2 (various kinases [21]): 6% | % Inhibition (various kinases [22]): 2% and -4% | % Inhibition (various kinases [23]): 2% and 1% | % Inhibition Average (various kinases [24]): 5% | % Inhibition Duplicate #1 (various kinases [24]): 4% | % Inhibition Duplicate #2 (various kinases [24]): 5% | % Inhibition (various kinases [25]): -1% and 3%
